5 compounds from patent US5891901A, “Substituted pyrroles” (Hoffmann-La Roche Inc., priority 1997, dated 1999) can be followed below.

The pIC50 is the negative decadic logarithm of the IC50, by convention in mol/L.

One assay deals with MDA-MB435 cells. The assay is described as follows: Antiproliferative activity, MDA-MB435 epithelial breast carcinoma cell line (MTT). As to conditions: Homo sapiens, MDA-MB-435, 120 h, MTT at day 5 post-drug addition, values marked * (Compounds A, B, D) are an average of two separate experiments, read-out: Antiproliferative Activity, MDAMB435 IC50. Type of assay: cell-based. The protocol:
(§1) The epithelial breast carcinoma cell line, MDA-MB435 and the colon carcinoma cell line, SW480, were purchased from ATCC (American Type Culture Collection) and were grown in culture in medium as recommended by ATCC. For analysis of the effect of various compounds on growth of these cells, the cells were plated at a concentration of 1500 cells/well in a 96 well tissue culture plate ("test plate"). The day after the cells were plated, the compounds to be analyzed were dissolved in 100% DMSO (dimethyl sulfoxide) to yield a 10 mM stock solution. Each compound was diluted in H2 O to 1 mM and was added to triplicate wells in the first row of a 96 well master plate which contains medium to yield a final concentration of 40 μM. The compounds were then serially diluted in medium in the "master plate". The diluted compound(s) were then transferred to test plates containing cells. A row of vehicle "control cells" received DMSO. The final concentration of DMSO in each well was 0.1%. At day 5 post-drug addition, the plate containing MDA-MB435 cells were analyzed as follows. Plates containing SW480 cells were analyzed at day 7 post-drug addition as follows.
(§2) MTT ([3-(4,5-dimethylthiazole-2-yl)-2,5-diphenyl-2H-tetrazolium bromide]; thiazolyl blue) was added to each well to yield a final concentration of 1 mg/ml. The plate was then incubated at 37° C. for 21/2-3 hours. The MTT containing medium was then removed and 50 μl of 100% ethanol was added to each well to dissolve the formazan. The absorbences were then read using an automated plate reader (Bio-tek microplate reader). IC50 's were calculated using the Reed and Munsch equation, see, Am. J. Hygiene Vol. 27 pgs. 493-497, 1938.

The subject of another assay is SW480 cells. Kind of assay: Antiproliferative activity, SW480 colon carcinoma cell line (MTT). The format is cell-based. The note with it: Homo sapiens, 168 h, MTT at day 7 post-drug addition, values marked * (Compounds A, B, C) are an average of two separate experiments. Here is the method: as §1, §2

pIC50: −log10 of the molar value.

Regarding `Cc1ccc2c(C3=C(c4cn(C)c5ccccc45)C(=O)NC3=O)cn(C)c2c1` [Compound A, 3-(1,6-dimethyl-1H-indol-3-yl)-4-(1-methyl-1H-indol-3yl)-pyrrole-2,5-dione], the pIC50 with MDA-MB435 cells was 7.48; in the assay on SW480 cells, 7.54.

Regarding `CSc1ccc2c(C3=C(c4cn(C)c5ccccc45)C(=O)NC3=O)cn(C)c2c1` [Compound B, 3-(6-methylsulfanyl-1-methyl-1H-indol-3-yl)-4-(1-methyl-1H-indol-3-yl)-pyrrole-2,5-dione], the pIC50 with MDA-MB435 cells was 7.35; with SW480 cells, 7.15.

On to `Cn1cc(C2=C(c3cn(C)c4cc(O)ccc34)C(=O)NC2=O)c2ccccc21` [Compound C, 3-(6-hydroxy-1-methyl-1H-indol-3-yl)-4-(1-methyl-1H-indol-3-yl)-pyrrole-2,5-dione], for which the pIC50 in the assay with MDA-MB435 cells was 7.52; with SW480 cells it was 7.15.

In the case of `CCc1ccc2c(C3=C(c4cn(C)c5ccccc45)C(=O)NC3=O)cn(C)c2c1` [Compound D, 3-(6-ethyl-1-methyl-1H-indol-3-yl)-4-(1-methyl-1H-indol-3-yl)-pyrrole-2,5-dione], the pIC50 in the assay with MDA-MB435 cells was 7.10.

As to `Cn1cc(C2=C(c3cn(C)c4cc(CC#N)ccc34)C(=O)NC2=O)c2ccccc21` [Compound E, {1-methyl-3-[4-(1-methyl-1H-indol-3-yl)-2,5-dioxo-2,5-dihydro-1H-pyrrol-3-yl]-1H-indol-6-yl}-acetonitrile], the pIC50 with MDA-MB435 cells was 6.70.
